Measured values reported in US8088772B2, “Sulfonamides and their use as a medicament” (The Genetics Company, Inc., priority 2006, dated 2012).

Key:
[1] = test system: βCatenin-BCL9; test: ELISA based protein-protein interaction assay; format: binding; details: inhibition class of the βCatenin-BCL9 interaction
Protocol: In vitro ELISA-based Protein-protein Interaction Assay
Protein Production in Bacteria
cDNAs including the binding domains of Lgs and βCatenin were fused downstream of glutathione-S-transferase (GST) cDNA in pGEX-4T inducible bacterial expression vector (Pharmacia). Fusion proteins were produced in BL21 bacteria (e.g. Stratagene) following manufacturer's recommendation.
To isolate the produced fusions protein bacteria were lysed in sonication buffer (10 mM Tris HCl pH 8.0, 150 mM NaCl, 1 mM EDTA, 1.5% sarkosyl, 2% Triton-X-100, 1 mM DTT and protease inhibitors), followed by short sonication on ice (e.g. 3 times 20 seconds at middle power) and centrifugation. Cleared supernatants were incubated under gentle rotation with glutathione beads (Amersham Pharmacia) for 2 hrs at 4° C. Finally, beads were washed several time in washing buffer (20 mM Tris pH 8.0, 200 mM NaCl, 1 mM EDTA, 1 mM DTT, 1 mM MgCl2, 0.5% NP40), and stored in storage buffer (20 mM Tris pH 8.0, 200 mM NaCl, 1 mM EDTA, 1 mM DTT, 1 mM MgCl2, 10% glycerol, 0.5% NP40, and proteinase inhibitors). The quality of the preparations was checked by SDS-gel electrophoresis by standard methods well known by persons skilled in the art. […]

[2] = test system: Wnt pathway; test: Cell Assay (CA): inhibition of Wnt activity in cancer cells, Tcf reporter gene; format: cell-based; details: inhibition class in the Cell Assay
Source text: Inhibition of Wnt Activity in Cancer Cells
The effect of β-catenin/BCL9 inhibitors identified in the ELISA-based protein-protein interaction assay on the Wnt pathway can be evaluated in a cell culture system using a reporter gene responsive to the Tcf/Lef family of transcription factors or by quantitative analysis of Wnt target genes in appropriate cell lines.
A reporter gene is a construct which comprises a readily detectable or assayable gene such β-galactosidase, green fluorescent protein, chloramphenicol acetyltransferase or luciferase, linked in cis to a transcription factor response element and a minimal promoter. Depending on the expression vectors used, this protocol can be applied, e.g. for mammalian as well as for Drosophila cell lines. For instance, colon cancer cells with constitutively active Wnt pathway like DLD-1 or SW620 (ATCC) are a well suitable system. Hereby, a Tcf-4 driven luciferase reporter plasmid (i.e. TOP-FLASH, Upstate biotechnology, New York, USA) is transiently or stably transfected into cells known in the art. Any means for introducing genetic material into cells can be used, including but not limited to infection, electroporation or transfection. For instance, to introduce DNA into DLD-1 cells, a lipofection agent like the Lipofectamine transfection reagent (Life Technologies, Inc.) can be used. By transient transfection protocols, a second reporter gene, e.g. the renilla luciferase reporter plasmid pRL-SV40 (Promega Corporation, Madison USA), needs to be co-transfected to normalize for transfection efficiency. Drugs are added to the media 24 h after trans-fection (transient transfection) or 24 h after seeding of the cells (stably transfected cells). Cell extracts are prepared 24 to 48 h later and assayed for reporter gene activity as described by the manufacturer (eg. for luciferase activity: Promega Corporation). Compounds reducing reporter gene activity more than 50% compared to solvent alone treated cells are considered as hits. In parallel, toxicity can be assessed for instance by the yellow tetrazolium salt cell proliferation assay (MTT) assay.

| SMILES | ELISA [1] | CA [2] |
| --- | --- | --- |
| O=[N+]([O-])c1ccc(N/N=C/c2ccncc2)c(S(=O)(=O)Nc2ccccc2Cl)c1 [TGC0011403] | 2 (21-40% inhibition) | 4 (61-80% inhibition) |
| N#Cc1ccc(Cl)c(NS(=O)(=O)c2ccccc2Br)c1 [TGC0011492] | 1 (0-20% inhibition) | 1 (0-20% inhibition) |
| CC/C=N/Nc1ccc([N+](=O)[O-])cc1S(=O)(=O)Nc1ccccc1Cl [TGC0011361] | 1 (0-20% inhibition) | 3.5 |
| O=[N+]([O-])c1ccc(NNCc2cc(F)cc(F)c2)c(S(=O)(=O)Nc2ccccc2Cl)c1 [TGC0012266] | 2.5 | 1.5 |
| O=[N+]([O-])c1ccc(N/N=C/c2ccc(Oc3cccnc3)cc2)c(S(=O)(=O)Nc2ccccc2Cl)c1 [TGC0011406] |  | 4 (61-80% inhibition) |
| CCCCCC#C/C=N/Nc1ccc([N+](=O)[O-])cc1S(=O)(=O)Nc1ccccc1Cl [TGC0012276] |  | 4.5 |
| O=C(NNc1ccc([N+](=O)[O-])cc1S(=O)(=O)Nc1ccccc1Cl)c1cc(Cl)cc(Cl)c1 [TGC0011568] | 1.5 | 4 (61-80% inhibition) |
| O=S(=O)(Nc1ccccc1Cl)c1ccccc1Cl [TGC0011155] | 1 (0-20% inhibition) |  |
| O=C1Nc2ccccc2/C1=N/Nc1ccc([N+](=O)[O-])cc1S(=O)(=O)Nc1ccccc1Cl [TGC0010663] | 2.5 |  |
| Nc1ccc(NC(=O)Cc2ccc(Cl)cc2)c(S(=O)(=O)Nc2ccccc2Cl)c1 [TGC0011573] | 3 (41-60% inhibition) | 1 (0-20% inhibition) |
| Cc1cc(/C=N\Nc2ccc([N+](=O)[O-])cc2S(=O)(=O)Nc2ccccc2Cl)c(C)n1-c1ccc(Cl)cc1 [TGC0010673] | 1 (0-20% inhibition) | 4.5 |
| Cc1nn(-c2ccc(F)cc2)c(Cl)c1/C=N\Nc1ccc([N+](=O)[O-])cc1S(=O)(=O)Nc1ccccc1Cl [TGC0010674] | 2.5 |  |
| O=S(=O)(Nc1cc(S(=O)(=O)N2CCOCC2)ccc1Cl)c1ccccc1Br [TGC0011498] | 1 (0-20% inhibition) | 1 (0-20% inhibition) |
| CC(=O)Nc1ccc(Cl)c(NS(=O)(=O)c2ccccc2Br)c1 [TGC0011502] | 1 (0-20% inhibition) | 1 (0-20% inhibition) |
| COC(=O)c1ccc(NS(=O)(=O)c2ccccc2Br)c(Cl)c1 [TGC0011499] | 1 (0-20% inhibition) | 1 (0-20% inhibition) |
| Cc1cc(-c2ccccc2)nn1-c1ccc([N+](=O)[O-])cc1S(=O)(=O)Nc1ccccc1Cl [TGC0011569] | 1.5 | 4 (61-80% inhibition) |
| O=S(=O)(Nc1ccccc1Cl)c1ccc(Cl)c(NS(=O)(=O)c2ccccc2Br)c1 [TGC0011493] | 1 (0-20% inhibition) | 1 (0-20% inhibition) |
| Cc1cc(-c2ccccc2)n(-c2ccc([N+](=O)[O-])cc2S(=O)(=O)Nc2ccccc2Cl)n1 [TGC0011570] | 5 (81-100% inhibition) | 4 (61-80% inhibition) |
| CC(=O)c1ccc(S(=O)(=O)NNc2ccc([N+](=O)[O-])cc2S(=O)(=O)Nc2ccccc2Cl)cc1 [TGC0011581] | 2 (21-40% inhibition) | 1 (0-20% inhibition) |
| O=[N+]([O-])c1ccc(NNCc2ccc(F)cc2)c(S(=O)(=O)Nc2ccccc2Cl)c1 [TGC0012257] | 1 (0-20% inhibition) | 1.5 |
| CC(C)C/C=N/Nc1ccc([N+](=O)[O-])cc1S(=O)(=O)Nc1ccccc1Cl [TGC0012273] |  | 3.5 |
| O=[N+]([O-])c1ccc(N/N=C/c2cccc(OCCN3CCOCC3)c2)c(S(=O)(=O)Nc2ccccc2Cl)c1 [TGC0011420] | 1 (0-20% inhibition) | 2 (21-40% inhibition) |
| COC(=O)c1ccc(Cl)c(NS(=O)(=O)c2ccccc2Br)c1 [TGC0011494] | 1 (0-20% inhibition) | 1 (0-20% inhibition) |
| CN1CCN(Cc2ccc(/C=N/Nc3ccc([N+](=O)[O-])cc3S(=O)(=O)Nc3ccccc3Cl)cc2)CC1 [TGC0011438] | 1 (0-20% inhibition) | 3 (41-60% inhibition) |

| SMILES | ELISA [1] | CA [2] |
| --- | --- | --- |
| O=S(=O)(Nc1ccccc1Cl)c1cccc(Br)c1 [TGC0011158] | 1 (0-20% inhibition) |  |
| O=[N+]([O-])c1ccc(N/N=C/c2ccc(CN3CCOCC3)cc2)c(S(=O)(=O)Nc2ccccc2Cl)c1 [TGC0011404] | 3 (41-60% inhibition) | 4 (61-80% inhibition) |
| CC(=O)Nc1ccc(/C=N/Nc2ccc([N+](=O)[O-])cc2S(=O)(=O)Nc2ccccc2Cl)cc1 [TGC0011358] | 1.5 | 3 (41-60% inhibition) |
| C[n+]1cccc(/C=N/Nc2ccc([N+](=O)[O-])cc2S(=O)(=O)Nc2ccccc2Cl)c1.[I-] [TGC0011513] |  | 1 (0-20% inhibition) |
| O=[N+]([O-])c1ccc(N/N=C/c2ccccn2)c(S(=O)(=O)Nc2ccccc2Cl)c1 [TGC0011401] | 1.5 | 4 (61-80% inhibition) |
| COc1ccc(/C=N/Nc2ccc(N)cc2S(=O)(=O)Nc2ccccc2Cl)cc1OC [TGC0011584] | 1 (0-20% inhibition) | 3 (41-60% inhibition) |
| O=[N+]([O-])c1ccc(N/N=C/c2cc(Cl)cc(Cl)c2)c(S(=O)(=O)Nc2ccccc2Cl)c1 [TGC0010536] | 2 (21-40% inhibition) | 5 (81-100% inhibition) |
| Cn1cncc1C#Cc1ccccc1S(=O)(=O)Nc1ccccc1Cl [TGC0012268] |  | 2.5 |
| O=C(Cc1ccc(Cl)cc1)Nc1ccc(N2CCOCC2)c(S(=O)(=O)Nc2ccccc2Cl)c1 [TGC0011574] | 3 (41-60% inhibition) | 2.5 |
| COC(=O)c1ccc(C(=O)NNc2ccc([N+](=O)[O-])cc2S(=O)(=O)Nc2ccccc2Cl)cc1 [TGC0011562] | 2 (21-40% inhibition) | 1.5 |
| O=[N+]([O-])c1ccc(N/N=C/c2cccc(CN3CCOCC3)c2)c(S(=O)(=O)Nc2ccccc2Cl)c1 [TGC0011419] | 1.5 | 3 (41-60% inhibition) |
| O=[N+]([O-])c1ccc(N/N=C/c2ccc(O)cc2)c(S(=O)(=O)Nc2ccccc2Cl)c1 [TGC0011359] | 3 (41-60% inhibition) | 3 (41-60% inhibition) |
| COc1ccc(/C=N/Nc2ccc([N+](=O)[O-])cc2S(=O)(=O)Nc2ccccc2Cl)cc1OC [TGC0011564] | 1 (0-20% inhibition) | 3.5 |
| O=[N+]([O-])c1ccc(N/N=C/c2ccccc2-c2cccnc2)c(S(=O)(=O)Nc2ccccc2Cl)c1 [TGC0011409] | 3.5 | 4.5 |
| O=[N+]([O-])c1ccc(NNCc2ccc3nonc3c2)c(S(=O)(=O)Nc2ccccc2Cl)c1 [TGC0012260] | 4.5 | 1.5 |
| O=[N+]([O-])c1ccc(N/N=C/c2cccnc2)c(S(=O)(=O)Nc2ccccc2Cl)c1 [TGC0011402] | 2 (21-40% inhibition) | 4 (61-80% inhibition) |
| CC(=O)Nc1ccc(S(=O)(=O)NNc2ccc([N+](=O)[O-])cc2S(=O)(=O)Nc2ccccc2Cl)cc1 [TGC0011575] | 1 (0-20% inhibition) | 3 (41-60% inhibition) |
| O=[N+]([O-])c1ccc(NN=C(Cc2ccccc2)Cc2ccccc2)c(S(=O)(=O)Nc2ccccc2Cl)c1 [TGC0010661] | 2 (21-40% inhibition) | 3 (41-60% inhibition) |
| O=[N+]([O-])c1ccc(N/N=C/c2ccnc3ccccc23)c(S(=O)(=O)Nc2ccccc2Cl)c1 [TGC0011405] |  | 4.5 |
| O=[N+]([O-])c1ccc(N/N=C/c2ccc(Br)cc2)c(S(=O)(=O)Nc2ccccc2Cl)c1 [TGC0011421] | 2.5 | 4 (61-80% inhibition) |
| COC(=O)c1ccccc1S(=O)(=O)Nc1ccccc1Cl [TGC0011601] | 1 (0-20% inhibition) | 1 (0-20% inhibition) |
| COc1cc(Cl)cc(/C=N/Nc2ccc([N+](=O)[O-])cc2S(=O)(=O)Nc2ccccc2Cl)c1OCC(=O)O [TGC0011360] | 4.5 |  |
| O=S(=O)(Nc1ccccc1Cl)c1ccccc1Br [TGC0011157] | 1 (0-20% inhibition) |  |
